From article PMC10105652, “Resistance to ceftazidime-avibactam in a KPC-2–producing Klebsiella pneumoniae caused by the extended-spectrum beta-lactamase VEB-25” (European Journal of Clinical Microbiology & Infectious …, 2023)
pIC50: −log10 of the molar value. Where two headings read alike, the source gives them in different places.

Target: T1, VEB-1 (Escherichia coli, UniProt Q7BVU7)
T1 construct: gene blaVEB; natural allele amplified and cloned in pCR-Blunt II-TOPO, E. coli Top10; crude extract
Test: cephalothin hydrolysis, UV […] nm, crude extract
Format: biochemical
Details: 100 µM cephalothin, 100 mM sodium phosphate pH 7.0, 3 min preincubation

**Q.** With `C[C@]1(Cn2ccnn2)[C@H](C(=O)O)N2C(=O)C[C@H]2S1(=O)=O` [tazobactam] as the compound, how does the pIC50 (read-out: CLA) read?
**A.** The pIC50 was 7.30.

**Q.** How did the pIC50 (read-out: AVI) turn out when `NC(=O)[C@@H]1CC[C@@H]2CN1C(=O)N2OS(=O)(=O)O` [avibactam] was run?
**A.** Its pIC50 is 6.05.

**Q.** `O=C(O)C[C@@H]1CC[C@H](NC(=O)Cc2cccs2)B(O)O1` [vaborbactam] was tested. Which pIC50 (read-out: VAB) did it give?
**A.** Its pIC50 is 5.96.

**Q.** With `O=C(O)[C@H]1/C(=C/CO)O[C@@H]2CC(=O)N21` [clavulanic acid] as the compound, how does the pIC50 (read-out: CLA) read?
**A.** Its pIC50 is 7.30.

**Q.** With `O=C(NC1CCNCC1)[C@@H]1CC[C@@H]2CN1C(=O)N2OS(=O)(=O)O` [relebactam] as the compound, how does the pIC50 (read-out: REL) read?
**A.** The pIC50 was 5.62.
